In ChEMBL document CHEMBL6153144, “Conformational Role of Methyl in the Potency of Cyclohexane-Substituted Squaramide CCR6 Antagonists” (J Med Chem, 2025):

Key:
[1] = Lipophilicity, logD of compound by shake flask method; format: physicochemical; details: octanol/water
[2] = Metabolic stability in human hepatocytes assessed as apparent intrinsic clearance measured per molar; format: ADME, cell-based, Hepatocyte
[3] = target: Voltage-gated inwardly rectifying potassium channel KCNH2 (Homo sapiens, UniProt Q12809); experiment: Inhibition of hERG; format: toxicity
CYP (isoform not stated) = CYP (isoform not stated) (Homo sapiens, UniProt P04798+P05177+P05181+P08684+P10632+P10635+P11509+P11712+P13584+P20813+P20815+P20853+P24462+P24903+P33260+P33261+P51589+P78329+P98187+Q02928+Q08477+Q16678+Q16696+Q5TCH4+Q6VVX0+Q7Z449+Q8TAV3+Q96SQ9+Q9HB55); experiment: Inhibition of CYP (unknown origin) at 3 uM relative to control; format: ADME, protein assay

Chain of Voltage-gated inwardly rectifying potassium channel KCNH2 (Q12809 whole entry, canonical isoform): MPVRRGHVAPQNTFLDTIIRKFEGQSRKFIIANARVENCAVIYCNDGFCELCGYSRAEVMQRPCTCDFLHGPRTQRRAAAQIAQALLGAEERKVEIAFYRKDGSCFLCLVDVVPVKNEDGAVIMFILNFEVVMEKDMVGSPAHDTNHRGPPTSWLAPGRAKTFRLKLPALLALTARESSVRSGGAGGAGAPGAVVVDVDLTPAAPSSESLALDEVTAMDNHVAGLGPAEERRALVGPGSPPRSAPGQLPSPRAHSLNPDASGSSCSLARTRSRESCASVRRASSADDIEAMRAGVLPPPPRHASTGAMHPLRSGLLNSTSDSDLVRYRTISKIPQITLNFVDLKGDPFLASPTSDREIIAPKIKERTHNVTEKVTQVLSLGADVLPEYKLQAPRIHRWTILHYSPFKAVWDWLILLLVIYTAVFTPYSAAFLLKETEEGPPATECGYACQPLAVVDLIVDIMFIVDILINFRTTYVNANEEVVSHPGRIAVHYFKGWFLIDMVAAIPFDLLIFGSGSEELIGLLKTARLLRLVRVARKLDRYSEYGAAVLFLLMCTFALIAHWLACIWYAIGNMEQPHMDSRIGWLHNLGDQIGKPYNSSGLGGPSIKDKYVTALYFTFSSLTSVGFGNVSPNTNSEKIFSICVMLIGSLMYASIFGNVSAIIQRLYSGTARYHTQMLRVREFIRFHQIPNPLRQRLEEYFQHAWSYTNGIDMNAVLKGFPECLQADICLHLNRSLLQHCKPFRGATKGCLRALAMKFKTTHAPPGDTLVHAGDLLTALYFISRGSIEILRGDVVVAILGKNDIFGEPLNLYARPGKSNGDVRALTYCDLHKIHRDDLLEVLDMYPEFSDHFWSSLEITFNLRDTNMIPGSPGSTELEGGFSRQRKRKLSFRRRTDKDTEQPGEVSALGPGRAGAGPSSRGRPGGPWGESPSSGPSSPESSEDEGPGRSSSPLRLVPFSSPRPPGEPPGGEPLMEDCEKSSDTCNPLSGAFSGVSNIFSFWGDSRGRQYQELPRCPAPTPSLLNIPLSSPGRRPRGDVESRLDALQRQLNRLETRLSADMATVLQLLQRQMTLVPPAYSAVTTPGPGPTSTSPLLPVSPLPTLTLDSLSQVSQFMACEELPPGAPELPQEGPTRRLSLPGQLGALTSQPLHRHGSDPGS

SMILES | CL(app) [2] | other results
CN(C)C(=O)c1nccc(Nc2c(NC3CCCCC3)c(=O)c2=O)c1O |  | logD [1]: 0.86
C[C@H]1OCCC[C@@]1(C)Nc1c(Nc2ccnc(C(=O)N(C)C)c2O)c(=O)c1=O | 3.4 µL/min | 
C[C@H]1CCCC[C@H]1Nc1c(Nc2ccnc(C(=O)N(C)C)c2O)c(=O)c1=O | 6.8 µL/min | 
C[C@@H]1CCCC[C@@H]1Nc1c(Nc2ccnc(C(=O)N(C)C)c2O)c(=O)c1=O | 4.7 µL/min | 
C[C@@H]1CCC[C@H](C)[C@@H]1Nc1c(Nc2ccnc(C(=O)N(C)C)c2O)c(=O)c1=O | 6.9 µL/min | 
C[C@@H]1OCCC[C@]1(C)Nc1c(Nc2ccnc(C(=O)N(C)C)c2O)c(=O)c1=O | 2.9 µL/min | IC50 [3]: > 100 µM; inhibition at 3 µM (CYP (isoform not stated)): < 5%
C[C@@H]1CCCC[C@]1(C)Nc1c(Nc2ccnc(C(=O)N(C)C)c2O)c(=O)c1=O | 9.9 µL/min | 
C[C@H]1CCCC[C@@]1(C)Nc1c(Nc2ccnc(C(=O)N(C)C)c2O)c(=O)c1=O | 8.3 µL/min | 
